Test results reported in the METLIN SMRT retention time set (Domingo-Almenara et al. 2019).

test: gradient 5% acetonitrile 3 min, to 50% in 2 min, to 85% in 15 min, held 3 min, 100 µL/min; conditions: column: Zorbax Extend-C18 2.1 x 50 mm; eluents: water / acetonitrile, 0.1% formic acid
Procedure, shortened: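 The mobile phases were water and acetonitrile, each with 0.1% formic acid, pumped at 100 μL/min through a Zorbax Extend-C18 column (2.1 × 50 mm, 1.8 μm). Pure standards were injected as mixtures of ~100 molecules and detected by a quadrupole time-of-flight mass spectrometer in positive and negative ionization mode. Retention time came from computationally picked adduct peaks, each inspected by hand.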

| RP-LC retention time | SMILES |
| --- | --- |
| 1100 s | Cc1c(-c2noc(-c3cccc(F)c3)n2)nnn1-c1ccc(F)cc1 |
| 902 s | CCS(=O)(=O)c1ccc2c(c1)N(Cc1nc(-c3ccc(F)cc3)no1)C(=O)CO2 |
| 972 s | Cc1c(S(=O)(=O)NCc2ccccc2)c(C)n(C)c1-c1nnc(C2CCC2)o1 |
| 928 s | CCOc1ccccc1-c1nc(Cn2cnc3onc(C)c3c2=O)c(C)o1 |
| 794 s | COc1cccc(Nc2c(-c3ccc(OC)c(OC)c3)nc3cnccn23)c1 |
| 940 s | Cc1nc(-c2cn(C)c3ncccc23)sc1C(=O)Nc1ccc(F)cc1F |
| 636 s | CCNc1nc(C)cc(N2CCN(C(=O)Nc3ccccc3)CC2)n1 |
| 832 s | Cc1cccc(CNC(=O)c2ncn3c2C(=O)N(C2CC2)C(C)(C(=O)NCc2cccc(C)c2)C3)c1 (stereo unspecified) |
| 1060 s | Cc1ccc(-c2ccc(=O)n(Cc3nc(-c4cccs4)no3)n2)cc1C |
| 788 s | Cc1nn(C(C)C(=O)NCCc2ccco2)c(=O)c2nn(-c3ccccc3)c(C)c12 (stereo unspecified) |
| 819 s | CCN(c1cccc(C)c1)S(=O)(=O)c1cc(-c2[nH]ncc2C(=O)N2CCCC2)oc1C |
| 601 s | COc1ccccc1C(=O)N1CCN(c2cnn3c(C)nnc3c2)CC1 |
| 1370 s | CCn1ccc(C(=O)N(CC2CCCO2)c2nc3c(C(C)C)cccc3s2)n1 (stereo unspecified) |
| 798 s | CCc1cc(=O)n(CC(=O)Nc2ccc(C)c(C)c2)c(N2CCOCC2)n1 |
| 697 s | O=C(NCCn1c(-c2ccc(F)cc2)nc2cccnc21)c1ccc2c(c1)OCO2 |
| 703 s | COc1ccc(NC(=O)Cc2csc3nc(-c4ccccc4)cn23)cc1OC |
| 902 s | CCOC(=O)c1cccc(Nc2c(-c3ccc(C(=O)OC)cc3)nc3cnccn23)c1 |

More lines, now with the values behind:

| SMILES | RP-LC retention time |
| --- | --- |
| CC(NC(=O)c1cnn2c(-c3ccc4c(c3)OCO4)ccnc12)c1ccc(F)cc1 (stereo unspecified) | 1000 s |
| O=C(NCC1CCCO1)c1cc2cccnc2n(Cc2ccccc2F)c1=O (stereo unspecified) | 932 s |
| COc1cc(OC)c(NC(=O)N2CCc3c(c(C(=O)N4CCOCC4)nn3C)C2)cc1Cl | 692 s |
| O=C(NCCn1c(C(F)(F)F)nc2cccnc21)c1ccc(Br)o1 | 740 s |
| CC(C)Cc1ccc(S(=O)(=O)N2CCC3(CCC(CN4CCN(C)CC4)O3)CC2)cc1 (stereo unspecified) | 688 s |
| O=C(CCc1c(-c2ccccc2)nc2ccccn12)NC1CC1 | 561 s |
| O=C(NC1CCCC1)C1CC(=O)N(c2ccc3c(c2)CCN3C(=O)C2CC2)C1 (stereo unspecified) | 704 s |
| O=C(Cn1c(C(F)(F)F)nc2cc3c(cc21)OCCO3)Nc1ccccc1 | 867 s |
| CCn1nccc1C(=O)NC1CCN(C2=NS(=O)(=O)C(c3ccc(F)cc3)=C2C)CC1 | 788 s |
| Cc1onc(C(=O)N2CCCCCCNC(=O)[C@@H]3CCCC[C@@H]32)c1CN1CCCCC1 | 686 s |
| CNC(=O)N1CC(C)Oc2ccc(Cl)cc21 (stereo unspecified) | 806 s |
| CCCn1c(=O)sc2cc(S(=O)(=O)N3CCC(C(=O)NC4CCCCC4)CC3)ccc21 | 967 s |
| O=C(c1ccco1)N1CCN(C(=O)C2CCCN(c3ncnc4c3nc3n4CCCCC3)C2)CC1 (stereo unspecified) | 657 s |
| COc1ccc2c(c1)C1(CCN(S(=O)(=O)c3ccc(F)c(F)c3)C1)C(=O)N2 (stereo unspecified) | 837 s |
| COc1ccc(Cl)cc1C(=O)N1CCN(C2=NC=CN3CC(C)N=C23)CC1 (stereo unspecified) | 578 s |
| COCCN1CCC(N2CCN(S(=O)(=O)c3cccc(Br)c3)CC2)C1=O (stereo unspecified) | 612 s |
| COC(=O)CNC(=O)N1CCCC1c1ccccc1C (stereo unspecified) | 737 s |
| O=C(Cc1ccc(NC(=O)c2ccsc2)cc1)NCc1cccs1 | 725 s |
| CCCN1CCN(C(=O)C2CCCN(c3nnc4ccc(C(F)(F)F)cn34)C2)CC1 (stereo unspecified) | 510 s |
